# Results taken from publication PMC12543283, “TastepepAI: An artificial intelligence platform for taste peptide de novo design” (PLOS Computational Biology, 2025).
# Several values for one entry are separate records, joined by “and”; a condition that tells them apart may be missing. Equal entries are not always repeated. Ends that are not written are not given here.
# Legend:
# [1] = Electronic tongue analysis (Taste-Sensing System SA 402B); set-up: unit not given here; conditions: reference solution 30 mM KCl + 0.3 mM tartaric acid as baseline, first measurement excluded; for Umami: sensor AAE; for Umami / Bitter / Sweet: detection threshold 0, room temperature; for Umami / Bitter / Sour / Salty: four replicates; for Sour: detection threshold -13, room temperature; for Salty: detection threshold -6, room temperature; for Sweet: measured five times
# Method in brief: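 Samples were tested at 0.1 and 1.0 mg/mL on an SA 402B e-tongue fitted with sourness, saltiness, bitterness, sweetness and umami sensors, with 30 mM KCl/0.3 mM tartaric acid as reference and baseline. Thresholds were −13 for sour, −6 for salty and 0 for the rest. Runs at room temperature: four replicates, five for sweetness, first reading discarded.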
# [2] = test system: human umbilical vein endothelial cells (HUVEC)
# [3] = test system: human embryonic kidney cells (HEK293T)
# [4] = test system: human bronchial epithelial cells (BEAS-2B)
# Procedure: The cytotoxicity of 73 synthetic peptides was evaluated using four human cell lines: human pancreatic ductal epithelial cells (HPNE), human embryonic kidney cells (HEK293T), human umbilical vein endothelial cells (HUVEC), and human bronchial epithelial cells (BEAS-2B). When cell density reached 70% confluence, the complete culture medium was replaced with serum-free maintenance medium, and peptides were added at a final concentration of 100 μM for 36 h. Control groups received only serum-free maintenance medium without peptides. Cell proliferation was assessed using the CCK-8 assay kit (Solarbio, CA1210) according to the manufacturer’s instructions.
# [5] = test system: human pancreatic ductal epithelial cells (HPNE)
Substance,Umami ([1]; peptide 0.1 mg/mL),Umami ([1]; peptide 1 mg/mL),"Bitter ([1]; sensor C00, peptide 0.1 mg/mL)","Bitter ([1]; sensor C00, peptide 1 mg/mL)","Sour ([1]; sensor CA0, peptide 0.1 mg/mL)","Sour ([1]; sensor CA0, peptide 1 mg/mL)","Salty ([1]; sensor CT0, peptide 0.1 mg/mL)","Salty ([1]; sensor CT0, peptide 1 mg/mL)","Sweet ([1]; sensor GL1, peptide 0.1 mg/mL)","Sweet ([1]; sensor GL1, peptide 1 mg/mL)","Average cell viability, HUVEC [2]","Cell viability, HUVEC, Data1 [2]","Cell viability, HUVEC, Data2 [2]","Cell viability, HUVEC, Data3 [2]","Average cell viability, HEK293T [3]","Cell viability, HEK293T, Data1 [3]","Cell viability, HEK293T, Data2 [3]","Cell viability, HEK293T, Data3 [3]","Average cell viability, BEAS-2B [4]","Cell viability, BEAS-2B, Data1 [4]",other results
KGGEV [TaPep68],0.75,-4.79,7.39,3.94,-1.26,12.33,-15.75,12.33,3.06,-4.04,103.75,103.54,113.44,94.28,100.03,100.79,94.92,104.38,104.35,106.68,"Cell viability, BEAS-2B, Data2 [4]: 113.46; Cell viability, BEAS-2B, Data3 [4]: 92.92; Average cell viability, HPNE [5]: 94.11; Cell viability, HPNE, Data1 [5]: 97.24; Cell viability, HPNE, Data2 [5]: 99.23; Cell viability, HPNE, Data3 [5]: 85.86"
TQEVVN [TaPep25],1.53,-3.13,7.01,3.50,-6.12,7.84,-23.02,5.51,8.12,-3.53,92.52,90.21,89.33,98.03,100.16,103.15,98.42,98.90,110.07,118.34,"Cell viability, BEAS-2B, Data2 [4]: 103.39; Cell viability, BEAS-2B, Data3 [4]: 108.47; Average cell viability, HPNE [5]: 92.98; Cell viability, HPNE, Data1 [5]: 92.95; Cell viability, HPNE, Data2 [5]: 81.96; Cell viability, HPNE, Data3 [5]: 104.03"
KGYEAV [TaPep5],1.93,-5.17,7.90,bitterness suppression and -0.10,-4.04,12.61,-18.14,14.26,6.12,-5.63,105.38,115.43,105.06,95.64,97.32,101.17,95.30,95.49,113.59,105.38,"Cell viability, BEAS-2B, Data2 [4]: 117.75; Cell viability, BEAS-2B, Data3 [4]: 117.65; Average cell viability, HPNE [5]: 113.38; Cell viability, HPNE, Data1 [5]: 117.83; Cell viability, HPNE, Data2 [5]: 109.17; Cell viability, HPNE, Data3 [5]: 113.13"
EQGEQN [TaPep15],3.17,-3.63,6.27,4.11,-7.15,8.97,-23.91,2.97,9.72,-3.92,100.56,103.30,104.26,94.12,92.65,98.80,86.59,92.56,103.09,105.68,"Cell viability, BEAS-2B, Data2 [4]: 95.51; Cell viability, BEAS-2B, Data3 [4]: 108.08; Average cell viability, HPNE [5]: 101.30; Cell viability, HPNE, Data1 [5]: 84.06; Cell viability, HPNE, Data2 [5]: 112.61; Cell viability, HPNE, Data3 [5]: 107.22"
PPLENT [TaPep39],0.99,-5.89,7.69,2.99,-1.65,15.66,-18.68,12.96,6.53,-7.82,107.56,101.22,113.36,108.09,100.06,96.81,97.19,106.18,115.22,118.05,"Cell viability, BEAS-2B, Data2 [4]: 113.86; Cell viability, BEAS-2B, Data3 [4]: 113.76; Average cell viability, HPNE [5]: 99.87; Cell viability, HPNE, Data1 [5]: 95.44; Cell viability, HPNE, Data2 [5]: 90.95; Cell viability, HPNE, Data3 [5]: 113.21"
FPEQQD [TaPep16],1.15,-5.22,7.29,3.65,-2.22,12.97,-21.97,7.92,4.77,-5.75,101.44,102.74,107.69,93.88,100.13,105.99,97.00,97.38,95.65,98.50,"Cell viability, BEAS-2B, Data2 [4]: 96.11; Cell viability, BEAS-2B, Data3 [4]: 92.32; Average cell viability, HPNE [5]: 104.83; Cell viability, HPNE, Data1 [5]: 100.13; Cell viability, HPNE, Data2 [5]: 113.61; Cell viability, HPNE, Data3 [5]: 100.73"
SNDPVA [TaPep71],1.39,-5.94,7.30,4.11,-2.77,14.75,-20.93,9.59,5.63,-5.65,96.51,91.41,97.95,100.19,97.98,102.11,95.68,96.15,108.14,100.40,"Cell viability, BEAS-2B, Data2 [4]: 109.77; Cell viability, BEAS-2B, Data3 [4]: 114.26; Average cell viability, HPNE [5]: 94.64; Cell viability, HPNE, Data1 [5]: 86.86; Cell viability, HPNE, Data2 [5]: 82.76; Cell viability, HPNE, Data3 [5]: 114.31"
FEGDQDA [TaPep18],1.84,-5.33,6.92,3.77,-3.88,13.35,-22.88,7.99,5.97,-5.91,104.36,97.71,114.64,100.75,103.66,104.57,105.99,100.41,104.49,109.67,"Cell viability, BEAS-2B, Data2 [4]: 103.49; Cell viability, BEAS-2B, Data3 [4]: 100.30; Average cell viability, HPNE [5]: 102.53; Cell viability, HPNE, Data1 [5]: 116.21; Cell viability, HPNE, Data2 [5]: 89.05; Cell viability, HPNE, Data3 [5]: 102.33"
NGDDEEG [TaPep7],1.28,-5.11,7.41,bitterness suppression and -0.45,-2.86,11.92,-21.22,9.19,6.98,-6.18,105.24,113.68,110.16,91.88,95.11,96.15,94.73,94.45,102.56,94.72,"Cell viability, BEAS-2B, Data2 [4]: 111.17; Cell viability, BEAS-2B, Data3 [4]: 101.79; Average cell viability, HPNE [5]: 99.30; Cell viability, HPNE, Data1 [5]: 92.35; Cell viability, HPNE, Data2 [5]: 93.04; Cell viability, HPNE, Data3 [5]: 112.51"
